These results are taken from patent publication US8378117B2 (priority 2005, dated 2013).

As usually defined, the IC50 is the midpoint of a concentration-inhibition curve.

Structures are written as SMILES. Like-named read-outs stand apart in the source and are kept apart here.

For one assay, the target named is T1, CB1 receptor (Homo sapiens, UniProt P21554).
T1 construct: expressed in transfected cells
As to the kind of experiment: Binding assay for CB1 agonists or inverse agonists (SK-N-MC membranes, [3H]-CP-55,940). Particulars: for IC50: Cannabinoid CB1 Receptor Binding IC50, calculated by linear regression from percent inhibition at various test concentrations; for inhibition at 0.5 µM: read-out: CB1 receptor binding percent inhibition, test concentration 0.5 μM (footnote 10); for inhibition at 1 µM: read-out: CB1 receptor binding percent inhibition, test concentration 1 μM (footnote 1); for inhibition at 0.2 µM: read-out: CB1 receptor binding percent inhibition, test concentration 0.2 μM (footnote 2). A digest of the protocol: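 Radioligand displacement: [3H]-CP-55,940 at […], 90 min at 30° C, pH 7.5 Tris buffer with 0.5 mg/mL fatty-acid-free BSA, using semi-purified membranes of human-CB1-transfected SK-N-MC cells. Bound counts collected on GF/C filters, 10 uM WIN 55,212 for non-specific; IC50 from percent inhibition over several concentrations.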

The target in another assay is T2, CB2 receptor (Homo sapiens, UniProt P34972).
T2 construct: expressed in transfected cells
T2 sequence (P34972 whole entry): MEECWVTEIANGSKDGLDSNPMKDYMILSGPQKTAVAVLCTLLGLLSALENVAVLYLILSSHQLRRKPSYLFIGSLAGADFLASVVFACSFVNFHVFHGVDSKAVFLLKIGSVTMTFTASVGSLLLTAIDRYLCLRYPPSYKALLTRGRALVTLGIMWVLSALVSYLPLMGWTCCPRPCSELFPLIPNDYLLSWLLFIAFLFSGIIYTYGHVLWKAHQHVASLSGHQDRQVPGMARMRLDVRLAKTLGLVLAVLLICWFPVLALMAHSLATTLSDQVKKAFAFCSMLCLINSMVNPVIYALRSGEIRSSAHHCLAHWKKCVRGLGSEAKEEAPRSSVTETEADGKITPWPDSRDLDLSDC
Description: Binding assay for CB2 agonists or inverse agonists (SK-N-MC membranes, [3H]-CP-55,940). Particulars: for IC50: Cannabinoid CB2 Receptor Binding IC50, calculated by linear regression from percent inhibition at various test concentrations. Summed up: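 IC50 came from percent-inhibition data over several compound concentrations, fitted by linear regression. Binding used semi-purified membranes of human CB2-transfected SK-N-MC cells, 90 min at 30 °C, pH 7.5 Tris-HCl with MgCl2, EDTA and BSA, then filtration and scintillation counting.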

The mark [1] stands for this setting: test concentration 0.2 μM (footnote 2), read-out: CB2 receptor binding percent inhibition.

T1 sequence (P21554 whole entry): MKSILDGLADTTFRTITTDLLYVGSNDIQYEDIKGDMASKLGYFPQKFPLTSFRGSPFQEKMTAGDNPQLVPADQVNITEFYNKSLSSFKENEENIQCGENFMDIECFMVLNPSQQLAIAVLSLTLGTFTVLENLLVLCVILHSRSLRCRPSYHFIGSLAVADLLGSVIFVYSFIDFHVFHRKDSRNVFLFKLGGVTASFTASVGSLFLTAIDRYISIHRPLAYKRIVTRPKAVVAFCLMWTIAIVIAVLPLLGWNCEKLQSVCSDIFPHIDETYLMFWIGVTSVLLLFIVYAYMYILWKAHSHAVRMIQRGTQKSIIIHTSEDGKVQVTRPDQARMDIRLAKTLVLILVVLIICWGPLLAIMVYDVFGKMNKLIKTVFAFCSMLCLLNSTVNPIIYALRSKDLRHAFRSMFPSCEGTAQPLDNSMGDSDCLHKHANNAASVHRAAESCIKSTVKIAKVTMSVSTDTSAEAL

As to `O=C(N[C@@H]1c2ccccc2C[C@@H]1O)c1nn(C2CCCCC2)c2c1CCCCC2Cc1ccc(F)cc1` (relative stereo) [Cpd 121, (8S*)-1-cyclohexyl-8-(4-fluoro-benzyl)-1,4,5,6,7,8-hexahydro-cycloheptapyrazole-3-carboxylic acid [(1R,2S)-2-hydroxy-indan-1-yl]-amide], on CB1 receptor, the half-inhibitory concentration (IC50) is 400 nM, the inhibition at 0.5 µM was 70% and the inhibition at 1 µM was determined as 80%. Further, the “CB2 receptor binding percent inhibition” value on CB2 receptor (test concentration not stated) was 95%.

As to `O=C(NCc1ccccc1)c1nn(C2CCCCC2)c2c1CCCCC2Cc1cccc(F)c1` (centres unmarked) [Cpd 53, 1-cyclohexyl-8-(3-fluoro-benzyl)-1,4,5,6,7,8-hexahydro-cycloheptapyrazole-3-carboxylic acid benzylamide], the inhibition at 1 µM at CB1 receptor came to 33%. Also, the “CB2 receptor binding percent inhibition” value at CB2 receptor (test concentration not stated) was 52%.

`Cc1ccc(CC2CCCCc3c(C(=O)NC4C5(C)CCC(C5)C4(C)C)nn(-c4ccc(F)cc4)c32)cc1` (centres unmarked) [Cpd 1, 1-(4-fluoro-phenyl)-8-(4-methyl-benzyl)-1,4,5,6,7,8-hexahydro-cycloheptapyrazole-3-carboxylic acid (1,3,3-trimethyl-bicyclo[2.2.1]hept-2-yl)-amide]: the IC50 at CB1 receptor was 200 nM; on CB2 receptor, 300 nM.

As to `O=C(NC1CCCCC1)c1nn(C2CCCCC2)c2c1CCCCC2Cc1cccc(F)c1` (centres unmarked) [Cpd 51, 1-cyclohexyl-8-(3-fluoro-benzyl)-1,4,5,6,7,8-hexahydro-cycloheptapyrazole-3-carboxylic acid cyclohexylamide], the inhibition at 1 µM on CB1 receptor was 36%. The “CB2 receptor binding percent inhibition” value on CB2 receptor (test concentration not stated) is reported as 30%.

For `O=C(NN1CCOCC1)c1nn(-c2ccccc2Cl)c2c1CCCC/C2=C\c1ccc(Cl)cc1` [Cpd 194, (8E)-8-(4-chloro-benzylidene)-1-(2-chloro-phenyl)-1,4,5,6,7,8-hexahydro-cycloheptapyrazole-3-carboxylic acid morpholin-4-ylamide], the results for the inhibition at 0.2 µM on CB1 receptor and at CB2 receptor (setting [1]) were 19% and 10%, respectively.

As for `O=C(NC1CC1)c1nn(Cc2ccc(Cl)cc2)c2c1CCCCC2Cc1cccc(Cl)c1` (centres unmarked) [Cpd 35, 1-(4-chloro-benzyl)-8-(3-chloro-benzyl)-1,4,5,6,7,8-hexahydro-cycloheptapyrazole-3-carboxylic acid cyclopropylamide], the inhibition at 1 µM on CB1 receptor turned out to be 22%. Further, the “CB2 receptor binding percent inhibition” value at CB2 receptor (test concentration not stated) was 36%.

As for `O=C(N[C@@H](CO)c1ccccc1)c1nn(C2CCCCC2)c2c1CCCC[C@@H]2Cc1ccc(F)cc1` [Cpd 66, (8R)-1-cyclohexyl-8-(4-fluoro-benzyl)-1,4,5,6,7,8-hexahydro-cycloheptapyrazole-3-carboxylic acid [(1R)-2-hydroxy-1-phenyl-ethyl]-amide], the inhibition at 1 µM at CB1 receptor came out at 16%. Also, the “CB2 receptor binding percent inhibition” value on CB2 receptor (test concentration not stated) is on record as 33%.

With `C[C@@H](NS(=O)(=O)C=Cc1n[nH]c2c1CCCCC2Cc1cccc(F)c1)c1ccccc1` (stereo partly drawn) [Cpd 235, 2-[8-(3-fluoro-benzyl)-1,4,5,6,7,8-hexahydro-cycloheptapyrazol-3-yl]-ethenesulfonic acid [(1R)-1-phenyl-ethyl]-amide], the inhibition at 0.2 µM on CB1 receptor was 0%; on CB2 receptor (setting [1]), 41%.

Turning to `COC(=O)[C@@H](Cc1ccc(F)cc1)NC(=O)c1nn(C)c2c1CCCC/C2=C\c1cccc(F)c1` [Cpd 248, (8E)-(2R)-2-{[8-(3-fluoro-benzylidene)-1-methyl-1,4,5,6,7,8-hexahydro-cycloheptapyrazole-3-carbonyl]-amino}-3-(4-fluoro-phenyl)-propionic acid methyl ester], the half-maximal inhibitory concentration (IC50) on CB1 receptor is 7 nM; at CB2 receptor, 3 nM. The inhibition at 0.2 µM at CB1 receptor was 89%; on CB2 receptor (read-out: CB2 receptor binding percent inhibition, test concentration 0.2 μM (footnote 2)), 96%.

For `O=C(NC1C2CC3CC(C2)CC1C3)c1nn(C2CCCCC2)c2c1CCCCC2Cc1cccc(Cl)c1` (centres unmarked) [Cpd 12, 8-(3-chloro-benzyl)-1-cyclohexyl-1,4,5,6,7,8-hexahydro-cycloheptapyrazole-3-carboxylic acid adamantan-2-ylamide], the inhibition at 1 µM at CB1 receptor is 36%. Besides, the “CB2 receptor binding percent inhibition” value at CB2 receptor (test concentration not stated) is listed as 31%.

With `O=C(NN1CCCCC1)c1nn(-c2ccc(Cl)cc2Cl)c2c1CCCCC2Cc1ccc(Cl)cc1` (centres unmarked) [Cpd 27, 8-(4-chloro-benzyl)-1-(2,4-dichloro-phenyl)-1,4,5,6,7,8-hexahydro-cycloheptapyrazole-3-carboxylic acid piperidin-1-ylamide], the inhibition at 1 µM at CB1 receptor came to 0%. Moreover, the “CB2 receptor binding percent inhibition” value at CB2 receptor (test concentration not stated) turned out to be 0%.

Turning to `C[C@@H](NC(=O)c1nn(C2CCCCC2)c2c1CCCCC2Cc1cccc(F)c1)c1ccccc1` (stereo partly drawn) [Cpd 174, 1-cyclohexyl-8-(3-fluoro-benzyl)-1,4,5,6,7,8-hexahydro-cycloheptapyrazole-3-carboxylic acid [(1R)-1-phenyl-ethyl]-amide], the inhibition at 0.2 µM came to 0% at CB1 receptor and 33% on CB2 receptor (setting [1]).

Turning to `O=C(NN1CCCCC1)c1nn(C2CCCCC2)c2c1CCCCC2Cc1cccc(F)c1` (centres unmarked) [Cpd 50, 1-cyclohexyl-8-(3-fluoro-benzyl)-1,4,5,6,7,8-hexahydro-cycloheptapyrazole-3-carboxylic acid piperidin-1-ylamide], the inhibition at 1 µM on CB1 receptor was 32%. Besides, the “CB2 receptor binding percent inhibition” value on CB2 receptor (test concentration not stated) is on record as 31%.

With `O=C(NC12CC3CC(CC(C3)C1)C2)c1nn(C2CCCCC2)c2c1CCCCC2Cc1cccc(Cl)c1` (centres unmarked) [Cpd 19, 8-(3-chloro-benzyl)-1-cyclohexyl-1,4,5,6,7,8-hexahydro-cycloheptapyrazole-3-carboxylic acid adamantan-1-ylamide], the inhibition at 1 µM on CB1 receptor amounted to 18%. Moreover, the “CB2 receptor binding percent inhibition” value on CB2 receptor (test concentration not stated) is listed as 51%.

`C[C@H](NC(=O)c1n[nH]c2c1CCCC/C2=C\c1ccc(Cl)cc1)C1CCCCC1` [Cpd 143, (8E)-8-(4-chloro-benzylidene)-1,4,5,6,7,8-hexahydro-cycloheptapyrazole-3-carboxylic acid [(1S)-1-cyclohexyl-ethyl]-amide]: on CB1 receptor, the IC50 was 2 nM and the inhibition at 0.2 µM stood at 99%. Further, the inhibition at 0.002 µM at CB1 receptor (read-out: CB1 receptor binding percent inhibition, test concentration 0.002 μM (footnote 11)) turned out to be 55%. For the same compound, the “CB1 receptor binding percent inhibition” value on CB1 receptor (test concentration not stated) was found to be 77%. Moreover, the “CB2 receptor binding percent inhibition” value on CB2 receptor (test concentration 0.2 μM (footnote 2)) was “^(2)100%”.

As to `O=C(N[C@@H]1c2ccccc2C[C@@H]1O)c1nn(C2CCCCC2)c2c1CCCCC2Cc1cccc(F)c1` (single isomer, unassigned) [Cpd 115, (8S*)-1-cyclohexyl-8-(3-fluoro-benzyl)-1,4,5,6,7,8-hexahydro-cycloheptapyrazole-3-carboxylic acid [(1R,2S)-2-hydroxy-indan-1-yl]-amide], on CB1 receptor, the IC50 is 500 nM and the inhibition at 0.5 µM worked out at 67%. Further, the “CB1 receptor binding percent inhibition” value at CB1 receptor (test concentration 1 μM (footnote 1), 1 µM) stood at 79%. Further, the “CB2 receptor binding percent inhibition” value at CB2 receptor (test concentration not stated) is recorded as 99%.

Turning to `O=C(N[C@@H](CCl)Cc1ccccc1)c1nn(-c2nccc(C(F)(F)F)n2)c2c1CCCCC2Cc1cccc(Cl)c1` (stereo partly drawn) [Cpd 187, 8-(3-chloro-benzyl)-1-(4-trifluoromethyl-pyrimidin-2-yl)-1,4,5,6,7,8-hexahydro-cycloheptapyrazole-3-carboxylic acid [(1R)-1-benzyl-2-chloro-ethyl]-amide], the inhibition at 0.2 µM at CB1 receptor was 12%; at CB2 receptor (setting [1]), 23%.

Take `O=C(N[C@H](CO)Cc1ccc(O)cc1)c1n[nH]c2c1CCCC/C2=C\c1cccc(Cl)c1` [Cpd 246, (8E)-(2S)-8-(3-chloro-benzylidene)-1,4,5,6,7,8-hexahydro-cycloheptapyrazole-3-carboxylic acid [1-hydroxymethyl-2-(4-hydroxy-phenyl)-ethyl]-amide]: the inhibition at 0.2 µM at CB1 receptor worked out at 0%; at CB2 receptor (setting [1]) it was 15%.

For `O=C(NN1CCCCC1)c1nn(-c2cc(Cl)ccc2Cl)c2c1CCCC/C2=C\c1ccc(Cl)cc1` [Cpd 199, (8E)-8-(4-chloro-benzylidene)-1-(2,5-dichloro-phenyl)-1,4,5,6,7,8-hexahydro-cycloheptapyrazole-3-carboxylic acid piperidin-1-ylamide], the inhibition at 0.2 µM at CB1 receptor and on CB2 receptor (setting [1]) was 30% throughout.

For the compound `O=C(c1nn(C2CCCCC2)c2c1CCCCC2Cc1cccc(F)c1)N1CCN(c2ccccc2)CC1` (centres unmarked) [Cpd 54, [1-cyclohexyl-8-(3-fluoro-benzyl)-1,4,5,6,7,8-hexahydro-cycloheptapyrazol-3-yl]-(4-phenyl-piperazin-1-yl)-methanone], the inhibition at 1 µM at CB1 receptor was found to be 18%. Moreover, at CB2 receptor (test concentration not stated), the “CB2 receptor binding percent inhibition” value is given as 41%.

On to `O=C(c1nn(-c2cc(Cl)ccc2Cl)c2c1CCCC/C2=C\c1ccc(Cl)cc1)N1CCOCC1` [Cpd 201, (8E)-[8-(4-chloro-benzylidene)-1-(2,5-dichloro-phenyl)-1,4,5,6,7,8-hexahydro-cycloheptapyrazol-3-yl]-morpholin-4-yl-methanone], for which the inhibition at 0.2 µM on CB1 receptor came out at 11%; at CB2 receptor (setting [1]) it was 0%.

Turning to `C[C@@H](NS(=O)(=O)/C=C/c1n[nH]c2c1CCCC/C2=C\c1ccc(Cl)cc1)c1ccccc1` [Cpd 236, (2E,8E)-2-[8-(4-chloro-benzylidene)-1,4,5,6,7,8-hexahydro-cycloheptapyrazol-3-yl]-ethenesulfonic acid [(1R)-1-phenyl-ethyl]-amide], the values for the inhibition at 0.2 µM on CB1 receptor and on CB2 receptor (setting [1]) were 0% and 41%, respectively.
